Data from PMC12559910, “A New N6‐Methyladenosine Inhibitor, Celastrol, Alleviates Rheumatoid Arthritis via Targeting IGF2BP3” (MedComm, 2025).

Target: T1, recombinant IGF2BP3 protein (Homo sapiens, UniProt O00425)
T1 construct: recombinant, amine-coupled to CM5 chip
Test: SPR (Biacore T200, CM5 chip, steady-state fit)
Format: binding

T1 sequence (O00425 whole entry): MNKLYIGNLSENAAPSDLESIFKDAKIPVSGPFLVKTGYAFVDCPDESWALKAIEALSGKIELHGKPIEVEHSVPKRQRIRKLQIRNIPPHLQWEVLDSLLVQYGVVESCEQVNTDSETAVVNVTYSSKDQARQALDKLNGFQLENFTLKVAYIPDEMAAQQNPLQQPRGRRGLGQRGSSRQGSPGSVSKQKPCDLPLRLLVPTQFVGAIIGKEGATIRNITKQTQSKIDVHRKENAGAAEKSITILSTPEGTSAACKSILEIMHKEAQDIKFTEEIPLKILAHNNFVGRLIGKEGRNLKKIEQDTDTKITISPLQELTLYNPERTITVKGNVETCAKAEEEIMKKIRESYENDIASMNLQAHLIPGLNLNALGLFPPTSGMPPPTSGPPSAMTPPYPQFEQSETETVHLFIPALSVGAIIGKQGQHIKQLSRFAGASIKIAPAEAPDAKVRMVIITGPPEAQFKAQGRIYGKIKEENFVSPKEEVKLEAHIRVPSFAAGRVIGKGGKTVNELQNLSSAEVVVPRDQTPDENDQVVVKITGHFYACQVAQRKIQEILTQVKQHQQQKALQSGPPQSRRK

CC1=C(O)C(=O)C=C2C1=CC=C1[C@@]2(C)CC[C@@]2(C)[C@@H]3C[C@](C)(C(=O)O)CC[C@]3(C)CC[C@]12C [celastrol]
Kd: 1650 nM
